Assay results: patent US9421163B2, “Topical compositions comprising polyunsaturated fatty acids” (Dignity Sciences Limited, priority 2009, dated 2016)

Experiments:
COX-2 enzymes = assay: Immunohistochemistry assay of COX-2 enzymes in ex vivo porcine ear skin (Franz diffusion cell, diaminobenzidine staining); assay type: cell-based; settings: substance as donor phase in Franz cell, after six hours versus 0 hours
COX-2 = assay: Western Blotting of COX-2 expression in porcine skin after topical application; assay type: cell-based; settings: topically applied, water control assigned 100%, FIG. 5
Description: A Western Blotting experiment was carried out to determine the effect of topically applied representative compounds of the invention DGLA and 15-HETrE on the expression of COX-2 in porcine skin. Water was used as a control.
The porcine skin membranes (as described in Example 1) were gently cleaned with de-ionised water before being homogenized (Silverson, Chesham, UK) in a RIPA lysis buffer [50 mM Tris-HCl (PH 7.4), 150 mM NaCl, 1 mM PMSF, 1 mM EDTA, 5 μg mL^−1 aprotinin, 5 μg mL^−1 leupeptin, 1% Triton X-100, 1% sodium deoxycholate, 0.1% SDS]. After 15 min incubation on ice, the lysates were clarified by centrifugation at 14000×g for 2×15 min and the supernatant stored at −80° C. for subsequent protein analysis.
Aliquots of 30 μg total protein were separated by SDS-PAGE, transferred to nitrocelullose membranes using the Trans-Blot electrophoretic Transfer Cell and briefly stained with Ponceau S to verify effective transfer. Immunoblots were incubated for 1 h in a blocking solution [tris-buffered saline (TBS)-Tween 20 containing 5% (w/v) commercial skimmed milk powder (Marvel) at room temperature. After washing, the membrane was probed overnight at 4° C. with COX-2 antibody at 1:1000, 5-LOX at 1:1000 and iNOS at 1:500 in (1:20 and 1:100 western blocking reagent and sodium azide solution respectively made up to volume with TBS tween). […]

skin = settings: applied directly to the skin; Xi et al. 2000; cited from earlier work

Compound | amount of dark stain (diaminobenzidine, COX-2 enzymes present in the skin) (COX-2 enzymes) | COX-2 expression relative to the control (COX-2) | antiproliferative properties (skin)
CCCCCC(O)/C=C/C=C\C/C=C\CCCCCCC(=O)O (stereo not drawn) [15-HETrE, 15-Hydroxy-eicosa-8Z, 11Z, 13E-trienoic acid] | the amount of dark stain has reduced | significant reduction | antiproliferative properties
CCCCC/C=C\C/C=C\C/C=C\CCCCCCC(=O)O [DGLA, Eicosa-8Z, 11Z, 14Z-trienoic acid] | the amount of dark stain has reduced | significant reduction | 
CC(C(=O)O)c1cccc(C(=O)c2ccccc2)c1 (stereo not drawn) [ketoprofen, reference compound] | the amount of dark stain has reduced |  | 
